Data from patent publication US12667614B2, “Bacterial microcompartment virus-like particles” (National University of Singapore, priority 2020, dated 2026).

How the values were obtained:
Type in all cases: biochemical
[1] = target: T1, LacZ + shell: LacZ (E. coli beta-galactosidase), N-terminal His6, fused to S2CP(30), SEQ ID NO: 103, encapsulated in Cso-BMC (Cso-PSIIH) shell (Escherichia coli, UniProt P00722); assay: Steady-state kinetics of Cso-BMC encapsulated LacZ (ONPG hydrolysis)
T1 construct: homotetramer
Protocol: (§1) For APEX2, all reagents were made to the appropriate working concentrations using TBS-50/350 pH 8.0. Working solutions of guaiacol and H2O2, both at 10 mM, were prepared on the day of assay. The guaiacol solution was shaken vigorously at 30° C. to ensure complete dissolution before equilibration back to room temperature. The assay concentration for APEX2 was 10 nM, H2O2 1 mM and that for guaiacol ranged from 0.20 to 2.0 mM. Total reaction volume was 200 μL. Reactions were monitored by the absorbance of tetraguaiacol formed at 470 nm using a BioTek Synergy™ HT microplate reader. […] This time point was taken for initial rate, V0, measurement. Kinetic constants were obtained using non-linear least square Michaelis-Menten fitting in GraphPad Prism software.
(§2) For steady-state kinetics of LacZ, all reagents were made to the appropriate working concentrations using TBS-50/350 pH 8.0 supplemented with 1 mM MgCl2. Working solutions of ONPG at 10 mM were prepared from a 50 mM stock solution in DMSO on the day of assay. The assay concentration for LacZ was 10 nM and that for ONPG (ortho-nitrophenyl-β-galactoside) ranged from 0.050 to 1.5 mM. Total reaction volume was 100 μL. Hydrolysis of ONPG was tracked by absorbance measurements at 405 nm.
To probe the capacity of the Cso-BMC for encasing enzymes of considerably different molecular sizes, an evolved pea cytosolic ascorbate peroxidase (APEX2), a 27.0 kDa monomer [Lam et al., Nature Methods 12(1): 51-54 (2015)], and E. coli beta-galactosidase (LacZ), a 466.0 kDa homotetramer, were chosen for encapsulation [Golan, et al., Biochimica et Biophysica Acta (BBA)—Bioenergetics, 1293(2): 238-242; Lam et al., Nature Methods 12(1): 51-54 (2015)]. […] Enzymes were also N-terminally tagged with the hexahistidine (Hiss) tag to facilitate downstream removal of unencapsulated enzymes that might co-purify with shells (Nichols, Kennedy, & Tullman-Ercek, 2019). Cso-PSIIH shells co-expressed with enzymes were constructed and purified. SDS-PAGE analysis and Western blotting confirmed the presence of the target enzymes in shell samples (FIG. 18A-B) and the average copy numbers of enzymes per shell were estimated by Coomassie blue densitometry (Table 8) [Hagen, A., et al., Nature Communications 9: 2881 (2018); Nichols et al., Methods in Enzymology, 617, 155-186 (2019)].
Encapsulation of an enzyme into a protein shell is known to alter the enzyme's catalytic properties in some cases. To probe how encapsulation by the Cso-BMC might affect the catalytic efficiencies of APEX2 and LacZ, we performed steady-state kinetics of both free and encapsulated enzymes and fitted the data to the Michaelis-Menten model to obtain the turnover number (kcat), Michaelis-Menten constant (KM), and catalytic efficiency (kcat/KM) (Table 8, FIG. 19). […]

[2] = target: T2, Free LacZ (E. coli beta-galactosidase), N-terminal His6, fused to S2CP(30); LacZ-S2CP(30), SEQ ID NO: 103 (Escherichia coli, UniProt P00722); assay: Steady-state kinetics of free LacZ (ONPG hydrolysis); settings: free LacZ 10 nM; ONPG 0.050 to 1.5 mM; TBS-50/350 pH 8.0, 1 mM MgCl2; mean with standard error, triplicates
T2 construct: homotetramer
Protocol: as §1
as §2, with “nm. […]” for “nm.”

[3] = target: T3, APEX2 + shell: APEX2 (evolved pea cytosolic ascorbate peroxidase), N-terminal His6, fused to S2CP(30), SEQ ID NO: 110, encapsulated in Cso-BMC (Cso-PSIIH) shell (Glycine max, UniProt Q43758, A134P/E112K/K14D/W41F); assay: Steady-state kinetics of Cso-BMC encapsulated APEX2 (guaiacol oxidation); settings: decreased to
T3 sequence (Q43758 with tags, fused parts or gaps A134P/E112K/K14D/W41F): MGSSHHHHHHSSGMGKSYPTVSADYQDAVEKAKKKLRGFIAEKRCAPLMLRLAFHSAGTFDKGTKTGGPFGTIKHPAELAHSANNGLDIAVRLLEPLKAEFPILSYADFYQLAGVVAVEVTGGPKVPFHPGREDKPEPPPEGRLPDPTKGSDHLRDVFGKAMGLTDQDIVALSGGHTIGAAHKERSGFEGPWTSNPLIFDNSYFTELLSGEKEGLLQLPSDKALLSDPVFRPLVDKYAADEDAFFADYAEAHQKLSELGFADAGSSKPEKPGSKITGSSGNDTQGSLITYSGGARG
Protocol: as §1
To probe the capacity of the Cso-BMC for encasing enzymes of considerably different molecular sizes, an evolved pea cytosolic ascorbate peroxidase (APEX2), a 27.0 kDa monomer [Lam et al., Nature Methods 12(1): 51-54 (2015)], and E. coli beta-galactosidase (LacZ), a 466.0 kDa homotetramer, were chosen for encapsulation [Golan, et al., Biochimica et Biophysica Acta (BBA)—Bioenergetics, 1293(2): 238-242; Lam et al., Nature Methods 12(1): 51-54 (2015)]. […]

[4] = encapsulated LacZ 10 nM, ONPG 0.050 to 1.5 mM, TBS-50/350 pH 8.0, 1 mM MgCl2, mean with standard error, triplicates

T1 sequence (P00722 other isoform, or with tags, fused parts or gaps): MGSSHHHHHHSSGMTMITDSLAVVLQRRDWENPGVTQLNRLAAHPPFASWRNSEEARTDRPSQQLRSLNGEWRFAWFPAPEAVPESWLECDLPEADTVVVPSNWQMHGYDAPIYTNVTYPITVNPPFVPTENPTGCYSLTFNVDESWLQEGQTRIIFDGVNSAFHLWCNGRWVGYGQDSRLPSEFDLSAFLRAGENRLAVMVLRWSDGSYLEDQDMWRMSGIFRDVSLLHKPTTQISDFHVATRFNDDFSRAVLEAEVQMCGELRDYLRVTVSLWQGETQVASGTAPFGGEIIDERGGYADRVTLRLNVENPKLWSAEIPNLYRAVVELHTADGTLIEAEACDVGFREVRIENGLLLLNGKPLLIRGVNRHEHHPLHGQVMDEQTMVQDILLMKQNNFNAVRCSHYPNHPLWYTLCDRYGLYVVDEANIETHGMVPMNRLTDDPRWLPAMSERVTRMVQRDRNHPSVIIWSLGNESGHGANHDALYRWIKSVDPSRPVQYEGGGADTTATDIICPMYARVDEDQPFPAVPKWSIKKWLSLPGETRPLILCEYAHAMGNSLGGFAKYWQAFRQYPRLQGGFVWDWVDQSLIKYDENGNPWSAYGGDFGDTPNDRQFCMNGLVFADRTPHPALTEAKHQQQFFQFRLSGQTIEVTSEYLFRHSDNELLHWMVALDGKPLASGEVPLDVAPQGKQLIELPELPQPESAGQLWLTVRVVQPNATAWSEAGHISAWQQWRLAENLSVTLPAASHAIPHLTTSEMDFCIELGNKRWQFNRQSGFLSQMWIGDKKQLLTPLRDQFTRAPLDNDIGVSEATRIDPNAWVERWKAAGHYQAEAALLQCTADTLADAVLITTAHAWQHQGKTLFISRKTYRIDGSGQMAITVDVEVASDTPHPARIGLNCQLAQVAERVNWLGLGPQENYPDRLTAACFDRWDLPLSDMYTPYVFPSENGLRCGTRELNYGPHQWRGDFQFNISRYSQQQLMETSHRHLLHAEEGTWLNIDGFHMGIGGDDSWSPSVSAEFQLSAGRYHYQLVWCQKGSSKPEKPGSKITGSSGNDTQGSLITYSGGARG
T2 sequence (P00722 other isoform, or with tags, fused parts or gaps): as above

SMILES | kcat/KM of encapsulated LacZ compared with the free enzyme ([1]; comparison in words with free LacZ) | Km [1, 4] [µM] | kcat [1, 4] [s⁻¹] | kcat/KM [1, 4] | kcat [2] [s⁻¹] | kcat/KM [2] | kcat/KM of encapsulated APEX2 relative to the free enzyme [3]
O=[N+]([O-])c1ccccc1O[C@@H]1O[C@H](CO)[C@H](O)[C@H](O)[C@H]1O [ONPG, ortho-nitrophenyl-β-galactoside] | not significantly different from the free enzyme | 140 ± 20 | 200 ± 14 | 14.3 ± 2.27 × 10^5 (s^−1 · M^−1) | 258 ± 17 | 15.2 ± 2.05 × 10^5 (s^−1 · M^−1) | 
COc1ccccc1O [guaiacol] |  |  |  |  |  |  | approximately 30%
